Assays:
[1] = target: T1, hM3 (human Muscarinic receptor subtype 3) (Homo sapiens, UniProt P20309); experiment: Human M3 calcium mobilization FLIPR assay; format: cell-based; conditions: hM3 expressed in CHO cells, intracellular Ca2+ release, read-out: hM3 EC50
T1 construct: expressed in transfected cells; host or cells: CHO cells (Chinese hamster ovary cells, ATCC)
Experimental: (§1) Human M1, rat M1, human M3 and human M5 Calcium Mobilization FLIPR™ Assay
(§2) The compound activity in the present invention (EC50 or IC50) is measured using a 384 plate-based imaging assay that monitors drug induced intracellular Ca^2+ release in whole cells. Activation of hM1 (human Muscarinic receptor subtype 1, gene bank access NM_000738), rM1 (rat Muscarinic receptor subtype 1, gene bank access NM_080773), hM3 (human Muscarinic receptor subtype 3, gene bank access NM_000740NM_000740) and hM5 (human Muscarinic receptor subtype 5, gene bank access NM_0121258), receptors expressed in CHO cells (Chinese hamster ovary cells, ATCC) is quantified in a Molecular Devices FLIPR II™ instrument as an increase in fluorescent signal. Inhibition of hM3 and hM5 by compounds is determined by the decrease in fluorescent signal in response to 2 nM acetylcholine activation.
(§3) Prior to experiment, the cell culture medium is removed from the plates by inversion. […] Plates are incubated at 37° C. for 60 minutes prior to start the experiment. The incubation is terminated by washing the cells four times in assay buffer, leaving a residual 25 μl buffer per well. Cell plates are then transferred to the FLIPR, ready for compound additions.
(§4) The day of experiment, acetylcholine and compounds are diluted in assay buffer in three-fold concentration range (10 points serial dilution) for addition by FLIPR instrument. For all calcium assays, a baseline reading is taken for 10 seconds followed by the addition of 12.5 μl of compounds, resulting in a total well volume of 37.5 μl. Data is collected every second for 60 pictures and then every 6 seconds for 20 pictures prior to the addition of agonist. For hM3 and hM5, before agonist addition, a second baseline reading is taken for 10 seconds followed by the addition of 12.5 μl of agonist or buffer, producing a final volume of 50 μl. After agonist stimulation, the FLIPR continues to collect data every second for 60 pictures and then every 6 seconds for 20 pictures. The fluorescence emission is read using filter 1 (emission 510-570 nm) by the FLIPR on board CCD camera.
(§5) Calcium mobilization output data are calculated as the maximal relative fluorescence unit (RFU) minus the minimal value for both compound and agonist reading frame (except for hM1 and rM1 using only the maximal RFU). Data are analyzed using sigmoidal fits of a non-linear curve-fitting program (XLfit version 4.2.2 Excel add-in version 4.2.2 build 18 math 1Q version 2.1.2 build 18). All pEC50 and plC50 values are reported as arithmetic means ±standard error of mean of ‘n’ independent experiments.

[2] = target: T2, hM5 (human Muscarinic receptor subtype 5) (Homo sapiens, UniProt P08912); experiment: Human M5 calcium mobilization FLIPR assay; format: cell-based; conditions: hM5 expressed in CHO cells, intracellular Ca2+ release, read-out: hM5 EC50
T2 construct: expressed in transfected cells; host or cells: CHO cells (Chinese hamster ovary cells, ATCC)
T2 sequence (P08912 1-532): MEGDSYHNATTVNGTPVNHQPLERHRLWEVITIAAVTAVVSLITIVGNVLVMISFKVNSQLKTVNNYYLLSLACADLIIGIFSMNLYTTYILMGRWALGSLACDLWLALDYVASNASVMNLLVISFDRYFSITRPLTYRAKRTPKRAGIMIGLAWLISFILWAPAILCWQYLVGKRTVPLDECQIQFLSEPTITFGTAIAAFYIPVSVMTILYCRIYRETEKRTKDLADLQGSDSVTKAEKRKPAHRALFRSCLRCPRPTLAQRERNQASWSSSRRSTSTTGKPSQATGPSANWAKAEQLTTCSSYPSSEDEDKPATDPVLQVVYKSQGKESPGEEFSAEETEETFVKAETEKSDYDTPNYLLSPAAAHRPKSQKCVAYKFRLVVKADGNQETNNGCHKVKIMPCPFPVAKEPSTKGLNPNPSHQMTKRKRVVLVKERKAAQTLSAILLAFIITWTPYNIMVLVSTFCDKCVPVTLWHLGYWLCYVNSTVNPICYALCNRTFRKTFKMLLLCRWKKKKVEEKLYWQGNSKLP
Experimental: as §1, §2, §3, §4, §5

T1 sequence (P20309 whole entry): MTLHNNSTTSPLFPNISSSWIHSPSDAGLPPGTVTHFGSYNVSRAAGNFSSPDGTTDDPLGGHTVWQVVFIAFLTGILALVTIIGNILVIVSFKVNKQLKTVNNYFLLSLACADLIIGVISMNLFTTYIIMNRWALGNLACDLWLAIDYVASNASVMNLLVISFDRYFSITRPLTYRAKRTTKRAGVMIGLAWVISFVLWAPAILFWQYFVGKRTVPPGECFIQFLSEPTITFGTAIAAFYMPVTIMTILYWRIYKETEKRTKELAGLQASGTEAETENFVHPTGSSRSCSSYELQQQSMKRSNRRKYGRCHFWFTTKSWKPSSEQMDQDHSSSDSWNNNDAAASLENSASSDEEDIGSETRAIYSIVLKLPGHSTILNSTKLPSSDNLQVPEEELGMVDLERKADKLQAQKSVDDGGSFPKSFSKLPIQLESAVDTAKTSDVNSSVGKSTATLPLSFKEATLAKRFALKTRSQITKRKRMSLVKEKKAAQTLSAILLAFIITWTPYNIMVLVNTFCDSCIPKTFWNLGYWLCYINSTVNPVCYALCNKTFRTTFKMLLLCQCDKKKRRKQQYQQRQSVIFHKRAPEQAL

SMILES | EC50 [1] [µM] | EC50 [2] [µM]
CC1(N2CCC(n3c(=O)[nH]c4ccccc43)CC2)CCN(C(=O)OCCF)C1 (racemic) [Example 4, 2-fluoroethyl 3-methyl-3-(4-(2-oxo-2,3-dihydro-1H-benzo[d]imidazol-1-yl)piperidin-1-yl)pyrrolidine-1-carboxylate] | > 40 | > 9.6
CCOC(=O)N1CCC(C)(N2CCC(n3c(=O)[nH]c4cc(F)ccc43)CC2)C1 (single isomer, unassigned) [Example 7, ethyl 3-(4-(5-fluoro-2-oxo-2,3-dihydro-1H-benzo[d]imidazol-1-yl)piperidin-1-yl)-3-methylpyrrolidine-1-carboxylate] | > 40 | 3.1
Cc1ccc2c(c1)[nH]c(=O)n2C1CCN(C2(C)CCN(C(=O)OC(C)C)C2)CC1 (single isomer, unassigned) [Example 15, isopropyl 3-methyl-3-(4-(5-methyl-2-oxo-2,3-dihydro-1H-benzo[d]imidazol-1-yl)piperidin-1-yl)pyrrolidine-1-carboxylate] | > 40 | 
CC#CCOC(=O)N1CCC(C)(N2CCC(n3c(=O)[nH]c4ccc(C)cc43)CC2)C1 (single isomer, unassigned) [Example 20, but-2-ynyl 3-methyl-3-(4-(6-methyl-2-oxo-2,3-dihydro-1H-benzo[d]imidazol-1-yl)piperidin-1-yl)pyrrolidine-1-carboxylate] | 0.535 | 0.72
CC1(N2CCC(n3c(=O)[nH]c4cc(F)ccc43)CC2)CCN(C(=O)OCCF)C1 (single isomer, unassigned) [Example 24, 2-fluoroethyl 3-(4-(5-fluoro-2-oxo-2,3-dihydro-1H-benzo[d]imidazol-1-yl)piperidin-1-yl)-3-methylpyrrolidine-1-carboxylate] | > 26.5 | 1.57
Cc1ccc2[nH]c(=O)n(C3CCN(C4(C)CCN(C(=O)OCCF)C4)CC3)c2c1 (single isomer, unassigned) [Example 28, 2-fluoroethyl 3-methyl-3-(4-(6-methyl-2-oxo-2,3-dihydro-1H-benzo[d]imidazol-1-yl)piperidin-1-yl)pyrrolidine-1-carboxylate] | > 24.3 | 2.65
C#CCOC(=O)N1CCC(C)(N2CCC(n3c(=O)[nH]c4ccc(C)cc43)CC2)C1 (single isomer, unassigned) [Example 41, prop-2-ynyl 3-methyl-3-(4-(6-methyl-2-oxo-2,3-dihydro-1H-benzo[d]imidazol-1-yl)piperidin-1-yl)pyrrolidine-1-carboxylate] | > 40 | > 40
C#CCOC(=O)N1CCC(C)(N2CCC(n3c(=O)[nH]c4ccc(C)cc43)CC2)C1 (single isomer, unassigned) [Example 43, prop-2-ynyl 3-methyl-3-(4-(6-methyl-2-oxo-2,3-dihydro-1H-benzo[d]imidazol-1-yl)piperidin-1-yl)pyrrolidine-1-carboxylate] | 0.553 | 0.205
COC(=O)N1CCC(C)(N2CCC(n3c(=O)[nH]c4ccc(C)cc43)CC2)C1 (single isomer, unassigned) [Example 45, methyl 3-methyl-3-(4-(6-methyl-2-oxo-2,3-dihydro-1H-benzo[d]imidazol-1-yl)piperidin-1-yl)pyrrolidine-1-carboxylate] | > 40 | 1.07
C#CCOC(=O)N1CCC(C)(N2CCC(n3c(=O)[nH]c4cc(F)ccc43)CC2)C1 (centres unmarked) [Example 11, prop-2-ynyl 3-(4-(5-fluoro-2-oxo-2,3-dihydro-1H-benzo[d]imidazol-1-yl)piperidin-1-yl)-3-methylpyrrolidine-1-carboxylate] | 1.13 | 

The remaining lines, values ahead:

EC50 [1] [µM] | EC50 [2] [µM] | SMILES
> 40 | > 40 | COC(=O)N1CCC(C)(N2CCC(n3c(=O)[nH]c4cc(C)ccc43)CC2)C1 (single isomer, unassigned) [Example 48, methyl 3-methyl-3-(4-(5-methyl-2-oxo-2,3-dihydro-1H-benzo[d]imidazol-1-yl)piperidin-1-yl)pyrrolidine-1-carboxylate]
> 40 | > 6.21 | CCOC(=O)N1CCC(C)(N2CCC(n3c(=O)[nH]c4ccc(F)cc43)CC2)C1 (single isomer, unassigned) [Example 49, ethyl 3-(4-(6-fluoro-2-oxo-2,3-dihydro-1H-benzo[d]imidazol-1-yl)piperidin-1-yl)-3-methylpyrrolidine-1-carboxylate]
> 40 | 3.56 | CCOC(=O)N1CCC(C)(N2CCC(n3c(=O)[nH]c4ccc(F)cc43)CC2)C1 (single isomer, unassigned) [Example 50, ethyl 3-(4-(6-fluoro-2-oxo-2,3-dihydro-1H-benzo[d]imidazol-1-yl)piperidin-1-yl)-3-methylpyrrolidine-1-carboxylate]
> 40 | > 9.63 | COC(=O)N1CCC(C)(N2CCC(n3c(=O)[nH]c4ccc(F)cc43)CC2)C1 (single isomer, unassigned) [Example 52, methyl 3-(4-(6-fluoro-2-oxo-2,3-dihydro-1H-benzo[d]imidazol-1-yl)piperidin-1-yl)-3-methylpyrrolidine-1-carboxylate]
> 40 | > 6.16 | CC1(N2CCC(n3c(=O)[nH]c4ccc(F)cc43)CC2)CCN(C(=O)OCCF)C1 (single isomer, unassigned) [Example 53, 2-fluoroethyl 3-(4-(6-fluoro-2-oxo-2,3-dihydro-1H-benzo[d]imidazol-1-yl)piperidin-1-yl)-3-methylpyrrolidine-1-carboxylate]
> 40 | 1.82 | CCOC(=O)N1CCC(C)(N2CCC(n3c(=O)[nH]c4cc(F)c(C)cc43)CC2)C1 (single isomer, unassigned) [Example 55, ethyl 3-(4-(5-fluoro-6-methyl-2-oxo-2,3-dihydro-1H-benzo[d]imidazol-1-yl)piperidin-1-yl)-3-methylpyrrolidine-1-carboxylate]
> 3.54 | 1.28 | CCOC(=O)N1CCC(C)(N2CCC(n3c(=O)[nH]c4cc(F)c(C)cc43)CC2)C1 (single isomer, unassigned) [Example 56, ethyl 3-(4-(5-fluoro-6-methyl-2-oxo-2,3-dihydro-1H-benzo[d]imidazol-1-yl)piperidin-1-yl)-3-methylpyrrolidine-1-carboxylate]
3.55 | 0.356 | CCOC(=O)N1CCC(C)(N2CCC(n3c(=O)[nH]c4cc(F)c(F)cc43)CC2)C1 (single isomer, unassigned) [Example 57, ethyl 3-(4-(5,6-difluoro-2-oxo-2,3-dihydro-1H-benzo[d]imidazol-1-yl)piperidin-1-yl)-3-methylpyrrolidine-1-carboxylate]
> 40 | 2.21 | CCOC(=O)N1CCC(C)(N2CCC(n3c(=O)[nH]c4cc(F)c(F)cc43)CC2)C1 (single isomer, unassigned) [Example 58, ethyl 3-(4-(5,6-difluoro-2-oxo-2,3-dihydro-1H-benzo[d]imidazol-1-yl)piperidin-1-yl)-3-methylpyrrolidine-1-carboxylate]
> 40 | > 7.27 | COC(=O)N1CCC(C)(N2CCC(n3c(=O)[nH]c4cc(F)c(F)cc43)CC2)C1 (single isomer, unassigned) [Example 60, methyl 3-(4-(5,6-difluoro-2-oxo-2,3-dihydro-1H-benzo[d]imidazol-1-yl)piperidin-1-yl)-3-methylpyrrolidine-1-carboxylate]

— patent publication US20090221642A1, “MUSCARINIC RECEPTOR AGONISTS, COMPOSITIONS, METHODS OF TREATMENT THEREOF, AND PROCESSES FOR PREPARATION THEREOF-176” (AstraZeneca AB, priority 2008, published 2009)
